{"source": "paper PMC6199744", "about": "“Development of Chemical Proteomics for the Folateome and Analysis of the Kinetoplastid Folateome” (ACS Infectious Diseases, 2018)", "type_in_all_cases": "binding", "key": {"[1]": {"biological_target": "T1, HeLa cell extract proteins (Homo sapiens, UniProt P60891)", "T1 construct": "endogenous in cells; host or cells: HeLa cell extract", "T1 sequence (P60891 1-318)": "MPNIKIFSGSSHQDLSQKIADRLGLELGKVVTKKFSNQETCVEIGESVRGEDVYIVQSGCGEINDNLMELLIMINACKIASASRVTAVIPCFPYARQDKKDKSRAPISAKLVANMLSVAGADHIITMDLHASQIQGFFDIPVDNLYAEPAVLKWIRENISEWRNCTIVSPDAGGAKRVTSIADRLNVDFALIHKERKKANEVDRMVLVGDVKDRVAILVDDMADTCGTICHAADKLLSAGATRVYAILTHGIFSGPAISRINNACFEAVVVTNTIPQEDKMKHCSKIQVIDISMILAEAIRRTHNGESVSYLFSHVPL"}, "[2]": {"biological_target": "T2, HeLa cell extract proteins (Homo sapiens, UniProt Q10570)", "T2 construct": "endogenous in cells; host or cells: HeLa cell extract", "T2 sequence (Q10570 1-1443)": "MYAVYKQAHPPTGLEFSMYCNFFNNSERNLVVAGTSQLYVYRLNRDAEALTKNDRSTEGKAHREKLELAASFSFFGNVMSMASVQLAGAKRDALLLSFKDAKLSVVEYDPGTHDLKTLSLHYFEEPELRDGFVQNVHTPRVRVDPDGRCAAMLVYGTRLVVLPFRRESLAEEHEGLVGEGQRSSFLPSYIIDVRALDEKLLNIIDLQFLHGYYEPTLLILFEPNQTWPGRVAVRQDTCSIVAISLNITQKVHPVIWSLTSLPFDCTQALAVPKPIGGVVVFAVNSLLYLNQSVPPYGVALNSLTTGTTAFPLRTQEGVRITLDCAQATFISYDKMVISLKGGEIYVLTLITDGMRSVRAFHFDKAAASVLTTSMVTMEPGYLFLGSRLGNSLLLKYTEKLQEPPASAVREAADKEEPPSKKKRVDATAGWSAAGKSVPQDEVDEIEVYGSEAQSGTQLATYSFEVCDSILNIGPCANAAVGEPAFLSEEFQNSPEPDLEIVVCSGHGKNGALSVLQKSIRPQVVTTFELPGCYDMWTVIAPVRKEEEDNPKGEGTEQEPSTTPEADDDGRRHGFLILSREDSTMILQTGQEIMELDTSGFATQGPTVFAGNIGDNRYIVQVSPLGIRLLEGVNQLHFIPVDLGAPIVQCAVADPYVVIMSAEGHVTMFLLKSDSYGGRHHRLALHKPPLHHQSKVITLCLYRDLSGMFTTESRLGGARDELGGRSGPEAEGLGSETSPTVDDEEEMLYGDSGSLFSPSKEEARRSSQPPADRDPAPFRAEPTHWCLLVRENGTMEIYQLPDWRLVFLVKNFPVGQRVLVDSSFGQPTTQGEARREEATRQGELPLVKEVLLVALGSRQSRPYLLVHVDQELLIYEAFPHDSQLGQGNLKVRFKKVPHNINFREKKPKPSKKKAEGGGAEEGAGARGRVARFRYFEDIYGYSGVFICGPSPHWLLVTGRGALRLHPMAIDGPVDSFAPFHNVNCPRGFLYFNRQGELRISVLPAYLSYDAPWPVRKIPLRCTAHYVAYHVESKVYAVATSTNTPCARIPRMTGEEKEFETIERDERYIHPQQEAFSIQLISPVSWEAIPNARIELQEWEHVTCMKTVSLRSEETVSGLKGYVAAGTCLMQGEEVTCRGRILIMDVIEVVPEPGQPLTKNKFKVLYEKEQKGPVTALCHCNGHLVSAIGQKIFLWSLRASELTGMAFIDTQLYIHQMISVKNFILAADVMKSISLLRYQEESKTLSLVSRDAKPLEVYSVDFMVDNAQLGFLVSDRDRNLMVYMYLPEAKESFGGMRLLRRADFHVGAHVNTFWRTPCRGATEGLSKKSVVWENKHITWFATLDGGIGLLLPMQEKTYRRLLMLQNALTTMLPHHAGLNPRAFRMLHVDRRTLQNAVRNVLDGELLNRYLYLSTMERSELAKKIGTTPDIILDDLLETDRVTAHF"}, "[3]": {"biological_target": "T3, HeLa cell extract proteins (Homo sapiens, UniProt P04279)", "T3 construct": "endogenous in cells; host or cells: HeLa cell extract", "T3 sequence (P04279 24-462)": "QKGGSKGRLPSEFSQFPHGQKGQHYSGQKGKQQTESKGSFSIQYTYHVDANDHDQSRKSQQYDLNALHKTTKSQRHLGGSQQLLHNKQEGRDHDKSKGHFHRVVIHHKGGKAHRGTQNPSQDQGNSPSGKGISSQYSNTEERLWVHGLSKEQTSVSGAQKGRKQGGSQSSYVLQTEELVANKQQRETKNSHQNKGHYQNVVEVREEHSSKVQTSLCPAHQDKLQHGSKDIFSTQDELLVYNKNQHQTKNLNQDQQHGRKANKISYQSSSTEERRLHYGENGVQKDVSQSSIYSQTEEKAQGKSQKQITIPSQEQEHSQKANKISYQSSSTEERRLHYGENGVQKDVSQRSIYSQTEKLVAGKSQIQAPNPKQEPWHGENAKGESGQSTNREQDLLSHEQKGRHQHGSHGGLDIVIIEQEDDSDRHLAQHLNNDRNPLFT"}, "[4]": {"biological_target": "T4, HeLa cell extract proteins (Homo sapiens, UniProt P50748)", "T4 construct": "endogenous in cells; host or cells: HeLa cell extract", "T4 sequence (P50748 whole entry)": "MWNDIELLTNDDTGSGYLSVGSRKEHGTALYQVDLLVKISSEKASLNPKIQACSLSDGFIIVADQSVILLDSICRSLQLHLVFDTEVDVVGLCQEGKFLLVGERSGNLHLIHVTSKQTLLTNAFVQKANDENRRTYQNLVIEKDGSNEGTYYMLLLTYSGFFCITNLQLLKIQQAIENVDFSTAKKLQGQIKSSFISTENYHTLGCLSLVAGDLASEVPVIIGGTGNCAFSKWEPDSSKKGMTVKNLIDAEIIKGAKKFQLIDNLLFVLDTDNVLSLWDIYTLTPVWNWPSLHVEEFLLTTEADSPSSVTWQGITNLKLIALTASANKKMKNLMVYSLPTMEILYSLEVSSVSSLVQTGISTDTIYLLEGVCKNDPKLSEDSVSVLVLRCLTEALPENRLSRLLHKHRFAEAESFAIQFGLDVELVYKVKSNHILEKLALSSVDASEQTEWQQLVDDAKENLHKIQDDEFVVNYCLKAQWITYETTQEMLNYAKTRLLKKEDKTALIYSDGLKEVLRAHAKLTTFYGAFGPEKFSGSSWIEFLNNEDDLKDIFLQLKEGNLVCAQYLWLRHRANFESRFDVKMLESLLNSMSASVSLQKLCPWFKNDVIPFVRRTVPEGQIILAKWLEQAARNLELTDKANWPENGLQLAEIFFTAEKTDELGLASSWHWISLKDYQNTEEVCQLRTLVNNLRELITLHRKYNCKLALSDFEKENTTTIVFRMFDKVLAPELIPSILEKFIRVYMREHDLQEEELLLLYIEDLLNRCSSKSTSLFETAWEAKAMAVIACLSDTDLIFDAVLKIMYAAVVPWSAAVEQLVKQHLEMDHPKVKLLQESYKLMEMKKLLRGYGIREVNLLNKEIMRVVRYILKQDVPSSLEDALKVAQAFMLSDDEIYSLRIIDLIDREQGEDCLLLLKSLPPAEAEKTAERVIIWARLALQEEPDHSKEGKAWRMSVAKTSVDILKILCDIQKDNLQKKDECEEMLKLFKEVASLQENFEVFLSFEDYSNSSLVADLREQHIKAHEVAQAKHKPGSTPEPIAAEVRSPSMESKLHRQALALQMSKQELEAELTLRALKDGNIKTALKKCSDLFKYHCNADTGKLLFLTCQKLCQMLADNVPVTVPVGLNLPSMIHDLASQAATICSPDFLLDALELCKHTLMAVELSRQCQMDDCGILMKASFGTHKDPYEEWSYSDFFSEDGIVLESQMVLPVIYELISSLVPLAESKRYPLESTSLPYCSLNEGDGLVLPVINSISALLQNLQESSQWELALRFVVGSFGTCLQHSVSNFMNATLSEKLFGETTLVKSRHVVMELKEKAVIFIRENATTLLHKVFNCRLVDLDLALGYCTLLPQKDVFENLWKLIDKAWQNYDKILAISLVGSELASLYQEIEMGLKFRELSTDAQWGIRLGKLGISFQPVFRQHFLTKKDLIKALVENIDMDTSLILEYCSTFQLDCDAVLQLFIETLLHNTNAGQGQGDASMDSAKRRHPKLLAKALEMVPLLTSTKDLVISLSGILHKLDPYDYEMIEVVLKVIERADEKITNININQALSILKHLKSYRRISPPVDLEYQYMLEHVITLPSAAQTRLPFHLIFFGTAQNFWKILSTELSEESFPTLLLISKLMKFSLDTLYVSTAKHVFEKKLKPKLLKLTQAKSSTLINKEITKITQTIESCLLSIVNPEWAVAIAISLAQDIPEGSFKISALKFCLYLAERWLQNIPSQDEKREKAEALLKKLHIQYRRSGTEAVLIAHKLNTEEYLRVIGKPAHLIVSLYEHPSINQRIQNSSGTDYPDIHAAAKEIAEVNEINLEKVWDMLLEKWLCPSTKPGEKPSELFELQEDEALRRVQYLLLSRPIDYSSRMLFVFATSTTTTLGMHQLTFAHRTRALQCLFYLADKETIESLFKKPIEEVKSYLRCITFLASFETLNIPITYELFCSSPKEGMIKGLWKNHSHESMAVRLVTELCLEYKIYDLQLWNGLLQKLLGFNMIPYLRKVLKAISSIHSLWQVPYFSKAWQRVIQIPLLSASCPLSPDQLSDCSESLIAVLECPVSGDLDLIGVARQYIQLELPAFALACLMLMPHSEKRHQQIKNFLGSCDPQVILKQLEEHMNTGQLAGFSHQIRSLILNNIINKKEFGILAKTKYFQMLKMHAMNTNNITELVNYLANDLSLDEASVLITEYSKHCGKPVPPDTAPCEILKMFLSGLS", "conditions": "HeLa; protein KNTC1"}, "[5]": {"biological_target": "T5, HeLa cell extract proteins (Homo sapiens, UniProt P14314)", "T5 construct": "endogenous in cells; host or cells: HeLa cell extract", "T5 sequence (P14314 15-528)": "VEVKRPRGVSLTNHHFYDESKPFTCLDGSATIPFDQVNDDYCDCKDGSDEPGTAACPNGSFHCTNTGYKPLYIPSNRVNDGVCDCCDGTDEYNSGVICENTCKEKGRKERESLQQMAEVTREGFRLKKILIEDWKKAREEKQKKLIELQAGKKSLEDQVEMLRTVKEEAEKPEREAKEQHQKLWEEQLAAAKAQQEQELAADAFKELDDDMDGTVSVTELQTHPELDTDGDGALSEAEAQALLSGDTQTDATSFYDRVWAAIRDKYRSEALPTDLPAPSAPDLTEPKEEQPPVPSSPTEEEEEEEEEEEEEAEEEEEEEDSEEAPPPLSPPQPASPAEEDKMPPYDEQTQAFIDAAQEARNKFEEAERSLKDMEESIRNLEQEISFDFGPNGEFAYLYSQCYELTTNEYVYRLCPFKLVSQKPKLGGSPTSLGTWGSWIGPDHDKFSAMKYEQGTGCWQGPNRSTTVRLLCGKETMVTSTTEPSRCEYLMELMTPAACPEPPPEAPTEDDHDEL", "conditions": "HeLa; protein PRKCSH (CDNA FLJ59211, HIGHLY SIMILAR TO GLUCOSIDASE 2 SUBUNIT BETA.)"}}, "note": "Read-outs that look alike come from different tables or passages of the source.", "data": [{"smiles": "Nc1nc2c(c(=O)[nH]1)N(C=O)C(CNc1ccc(C(=O)N[C@@H](CCC(=O)O)C(=O)O)cc1)CN2", "note": "(stereo partly drawn) [LEU, leucovorin]", "values": [{"measurement": "fold changes relative to vehicle control", "setting": "[1]; HeLa, protein PRPS1", "result": 1.12}, {"measurement": "fold changes relative to vehicle control", "setting": "[2]; HeLa, captured protein CPSF1", "result": 0.95}, {"measurement": "fold changes relative to vehicle control", "setting": "[3]; protein SEMG1, HeLa", "result": 0.13}]}, {"smiles": "Nc1nc2[nH]cc(CCc3ccc(C(=O)N[C@@H](CCC(=O)O)C(=O)O)cc3)c2c(=O)[nH]1", "note": "[PTX, pemetrexed]", "values": [{"measurement": "fold changes relative to vehicle control", "setting": "[1]", "result": 1.07}, {"measurement": "fold changes relative to vehicle control", "setting": "[2]", "result": 0.88}, {"measurement": "fold changes relative to vehicle control", "setting": "[3]", "result": 0.14}]}, {"smiles": "CCCCCCOc1ccc(Cc2cnc(N)nc2N)cc1", "note": "[compound 1]", "values": [{"measurement": "fold changes relative to vehicle control", "setting": "[4]", "result": 1.15}, {"measurement": "fold changes relative to vehicle control", "setting": "[5]", "result": 1.76, "unit": "fold"}]}, {"smiles": "CCCCCCOc1cccc(Cc2cnc(N)nc2N)c1", "note": "[compound 2]", "values": [{"measurement": "fold changes relative to vehicle control", "setting": "[4]", "result": 1.13}, {"measurement": "fold changes relative to vehicle control", "setting": "[5]", "result": 2.8, "unit": "fold"}]}, {"smiles": "Nc1nc2cccc(-c3ccccc3)c2n1Cc1ccc(Cl)c(Cl)c1", "note": "[compound 3]", "values": [{"measurement": "fold changes relative to vehicle control", "setting": "[4]", "result": 1.17}, {"measurement": "fold changes relative to vehicle control", "setting": "[5]", "result": 1.26, "unit": "fold"}]}, {"smiles": "NCCOCCOCC(=O)Nc1nc2ncc(CNc3ccc(C(=O)NC(CCC(=O)O)C(=O)O)cc3)nc2c(=O)[nH]1", "note": "(stereo not drawn) [compound 6]", "values": [{"measurement": "fold changes relative to vehicle control", "setting": "[1]; HeLa, protein PRPS1", "result": 1.08}, {"measurement": "fold changes relative to vehicle control", "setting": "[2]; HeLa, captured protein CPSF1", "result": 0.97}, {"measurement": "fold changes relative to vehicle control", "setting": "[3]; protein SEMG1, HeLa", "result": 0.16}]}, {"smiles": "NCCCNc1ccc(C(=O)NC(CCC(=O)O)C(=O)O)cc1", "note": "(stereo not drawn) [compound 7]", "values": [{"measurement": "fold changes relative to vehicle control", "setting": "[1]; HeLa, protein PRPS1", "result": 0.9}, {"measurement": "fold changes relative to vehicle control", "setting": "[2]; HeLa, captured protein CPSF1", "result": 0.93}, {"measurement": "fold changes relative to vehicle control", "setting": "[3]; protein SEMG1, HeLa", "result": 0.09}]}]}
